ChEMBL document CHEMBL4020732, “Synthesis, structural characterization and biological activity of novel Knoevenagel condensates on DLD-1 human colon carcinoma” (Bioorg Med Chem Lett, 2017)
Calls of active or inactive are those of the source. The rule behind the calls is not given here.

Experiments:
[1] = Glutathione reactivity assessed as rate constant for total GSH loss by UV-vis spectrophotometric method
[2] = system: DLD-1; test: Antioxidant activity in human DLD1 cells assessed as glutathione reactivity by measuring GSSG level per mg protein by ortho-phthalaldehyde probe based fluorescence spectrometric method (reference value: 0.69 nmol); assay type: functional
[3] = Antioxidant activity of the compound assessed as DPPH radical scavenging activity at 1 mM after 5 mins by spectrophotometric method; assay type: functional
[4] = system: DLD-1; test: Antioxidant activity in human DLD1 cells assessed as glutathione reactivity by measuring GSH level per mg protein by ortho-phthalaldehyde probe based fluorescence spectrometric method (reference value: 2.19 +/- 0.18 nmol); assay type: functional
[5] = system: DLD-1; test: Antioxidant activity in human DLD1 cells assessed as ratio of reduced glutathione to oxidized glutathione by ortho-phthalaldehyde probe based fluorescence spectrometric method (reference value: 3.19 +/- 0.2); assay type: functional
[6] = Antioxidant activity assessed as ABTS radical scavenging activity after 5 mins by spectrophotometric method; assay type: functional; parameters: unit not given here
[7] = biological target: T1, Extracellular superoxide dismutase [Cu-Zn] (Homo sapiens) (UniProt P08294); test: Inhibition of SOD3 in human DLD1 cells at 100 uM using xanthine as substrate pretreated for 24 hrs followed by substrate addition after 5 mins by NBT dye based spectrophotometric method; assay type: cell-based
T1 sequence (whole entry): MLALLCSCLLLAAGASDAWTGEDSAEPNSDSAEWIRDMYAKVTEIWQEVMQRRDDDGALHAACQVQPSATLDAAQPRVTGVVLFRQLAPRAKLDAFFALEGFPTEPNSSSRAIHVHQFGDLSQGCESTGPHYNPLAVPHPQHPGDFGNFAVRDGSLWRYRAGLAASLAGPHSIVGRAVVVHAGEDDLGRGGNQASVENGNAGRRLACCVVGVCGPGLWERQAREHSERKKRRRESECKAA

[8] = system: DLD-1; test: Antiproliferative activity against human DLD1 cells at 100 uM after 4 to 48 hrs by Alamar blue assay; assay type: functional, cell-based
[9] = biological target: Superoxide dismutase 1/2 (Homo sapiens) (UniProt P00441+P04179); test: Inhibition of SOD1/SOD2 in human DLD1 cells at 100 uM using xanthine as substrate pretreated for 24 hrs followed by substrate addition measured after 5 mins by NBT dye based spectrophotometric method; assay type: cell-based
Sequence of Superoxide dismutase 1/2 (Homo sapiens) (P00441 whole entry, looked up, one chain of several): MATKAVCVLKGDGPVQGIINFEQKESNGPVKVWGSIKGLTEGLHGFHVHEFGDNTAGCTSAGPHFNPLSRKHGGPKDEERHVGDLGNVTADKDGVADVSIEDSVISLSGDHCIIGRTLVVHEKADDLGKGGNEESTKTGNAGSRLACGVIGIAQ

[10] = Antioxidant activity of the compound assessed as DPPH radical scavenging activity after 5 mins by spectrophotometric method; assay type: functional; parameters: unit not given here
[11] = system: DLD-1; test: Cytotoxicity against human DLD1 cells by MTT assay; assay type: functional, cell-based
[12] = Antioxidant activity assessed as ABTS radical scavenging activity at 100 uM after 5 mins by spectrophotometric method; assay type: functional
[13] = system: DLD-1; test: Down regulation of MRP1 expression in human DLD1 cells at 100 uM after 24 hrs by fluorescence assay; assay type: functional, cell-based
[14] = biological target: T2, Superoxide dismutase [Mn], mitochondrial (Homo sapiens) (UniProt P04179); test: Inhibition of mitochondrial SOD2 in human DLD1 cells at 100 uM using xanthine as substrate pretreated for 24 hrs followed by substrate addition after 5 mins by NBT dye based spectrophotometric method; assay type: cell-based
T2 sequence (whole entry): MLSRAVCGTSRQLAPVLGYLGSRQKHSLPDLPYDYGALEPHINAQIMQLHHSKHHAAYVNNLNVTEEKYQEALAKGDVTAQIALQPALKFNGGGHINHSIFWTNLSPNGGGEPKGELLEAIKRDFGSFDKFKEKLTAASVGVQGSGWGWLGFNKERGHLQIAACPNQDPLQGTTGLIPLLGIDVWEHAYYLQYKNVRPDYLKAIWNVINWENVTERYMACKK

1/IC50 [6] | IC50 [6] [µM] | inhibition [7] | inhibition [9] | 1/IC50 [10] | IC50 [10] [µM] | inhibition [14] | Structure (SMILES) | K [1] [M⁻¹ s⁻¹] | Activity [2] [nmol] | inhibition [3] [%] | Activity [4] [nmol] | Ratio [5] | Activity [1] | Activity [8] | IC50 [11] [µM] | inhibition [12] [%] | Activity [13]
0.275 | 3.63 | Active | Active | 0.04 | 25.2 | – | CCOc1cc(/C=C/C(=O)C(=Cc2ccc(O)c(O)c2)C(=O)/C=C/c2ccc(O)c(OCC)c2)ccc1O | – | 1.16 | 81.2 | 4.41 | 3.78 | Active | Active | 5.1 | 98.1 | –
0.1 | 10 | inactive | inactive | 0.014 | 73 | Active | CCOc1ccc(C=C(C(=O)/C=C/c2ccc(O)c(OC)c2)C(=O)/C=C/c2ccc(O)c(OC)c2)cc1OCC | – | 1.88 | 61.9 | 4.27 | 2.28 | Active | Active | 4.12 | 74.9 | Active
0.187 | 5.36 | inactive | – | 0.017 | 60.5 | – | CCOc1cc(/C=C/C(=O)C(=Cc2ccc(O)c(OC)c2)C(=O)/C=C/c2ccc(O)c(OCC)c2)ccc1O | – | 4.3 | 63 | 9.75 | 2.27 | Active | Active | 9.63 | 96.6 | Active
0.088 | 11.3 | inactive | Active | 0.019 | 53.2 | Active | CCOc1cc(/C=C/C(=O)C(=Cc2ccc(OC)c(OC)c2)C(=O)/C=C/c2ccc(O)c(OCC)c2)ccc1O | – | 0.49 | 73.5 | 3.24 | 6.59 | Active | Active | 42 | 80.6 | –
0.195 | 5.14 | inactive | inactive | 0.01 | 96.7 | – | CCOc1cc(C=C(C(=O)/C=C/c2ccc(O)c(OCC)c2)C(=O)/C=C/c2ccc(O)c(OCC)c2)ccc1O | – | 0.84 | 50.6 | 3.2 | 3.8 | Active | Active | 1.36 | 88.5 | –
0.049 | 20.2 | inactive | inactive | 0.016 | 61.6 | – | CCOc1cc(/C=C/C(=O)C(=Cc2ccc(OCC)c(OCC)c2)C(=O)/C=C/c2ccc(O)c(OCC)c2)ccc1O | – | 3.24 | 69 | 2.12 | 0.65 | Active | Active | 3.45 | 71.4 | –

Second part, the molecule before the results:

Structure (SMILES) | 1/IC50 [6] | IC50 [6] [µM] | inhibition [7] | inhibition [9] | 1/IC50 [10] | IC50 [10] [µM] | inhibition [14] | K [1] [M⁻¹ s⁻¹] | Activity [2] [nmol] | inhibition [3] [%] | Activity [4] [nmol] | Ratio [5] | Activity [1] | Activity [8] | IC50 [11] [µM] | inhibition [12] [%] | Activity [13]
C/C=C(/C)C(C)=O | – | – | – | – | – | – | – | 0.013 | – | – | – | – | – | – | – | – | –
CCOc1cc(/C=C/C(=O)C(=Cc2ccc(O)cc2)C(=O)/C=C/c2ccc(O)c(OCC)c2)ccc1O | 0.068 | 14.8 | inactive | inactive | 0.021 | 48 | inactive | – | 3.13 | 74.4 | 3.59 | 1.15 | Active | Active | 20.3 | 87.7 | Active
COc1cc(/C=C/C(=O)C(=Cc2ccc(O)c(O)c2)C(=O)/C=C/c2ccc(O)c(OC)c2)ccc1O | 0.455 | 2.2 | – | Active | 0.097 | 10.3 | – | – | 0.5 | 92.5 | 2.6 | 5.17 | inactive | Active | 17.6 | 98.2 | –
COc1cc(/C=C/C(=O)CC(=O)/C=C/c2ccc(O)c(OC)c2)ccc1O [CURCUMIN] | 0.177 | 5.66 | – | – | 0.038 | 26.5 | – | – | – | 91.7 | – | – | – | – | – | 95 | –
COc1cc(/C=C/C(=O)C(=Cc2ccc(O)cc2)C(=O)/C=C/c2ccc(O)c(OC)c2)ccc1O | 0.158 | 6.32 | – | Active | 0.021 | 48.7 | – | – | 1.2 | 73.8 | 4.8 | 3.99 | Active | Active | 4.08 | 89.2 | Active
CCOc1cc(/C=C/C(=O)C(=Cc2ccccc2)C(=O)/C=C/c2ccc(O)c(OCC)c2)ccc1O | 0.049 | 20.4 | – | Active | 0.011 | 91.4 | Active | – | 0.48 | 54.7 | 3.27 | 6.89 | Active | Active | 5.06 | 60.5 | Active
C#CC(=O)OCC | – | – | – | – | – | – | – | 1.75 | – | – | – | – | – | – | – | – | –
COc1cc(/C=C/C(=O)C(=Cc2ccccc2)C(=O)/C=C/c2ccc(O)c(OC)c2)ccc1O | 0.116 | 8.58 | inactive | inactive | 0.012 | 84.4 | – | – | 1.4 | 58.6 | 4.47 | 3.19 | Active | Active | 5.45 | 75.1 | Active
COc1cc(/C=C/C(=O)C(=Cc2ccc(OC)c(OC)c2)C(=O)/C=C/c2ccc(O)c(OC)c2)ccc1O | 0.148 | 6.76 | inactive | Active | 0.014 | 71 | Active | – | 4.21 | 64.8 | 3.93 | 0.93 | Active | Active | 3.07 | 83.6 | Active
CCOc1cc(C=C(C(=O)/C=C/c2ccc(O)c(OC)c2)C(=O)/C=C/c2ccc(O)c(OC)c2)ccc1O | 0.251 | 3.98 | inactive | Active | 0.01 | 123 | – | – | 1.02 | 42.3 | 5.12 | 5 | Active | Active | 4.26 | 94.3 | Active
C=CC(=O)OCCCC | – | – | – | – | – | – | – | 0.142 | – | – | – | – | – | – | – | – | –
CCOc1cc(/C=C/C(=O)CC(=O)/C=C/c2ccc(O)c(OCC)c2)ccc1O [ETHYL CURCUMIN] | 0.156 | 6.4 | – | – | 0.041 | 24.5 | – | – | – | 93.4 | – | – | – | – | – | 96.1 | –
COc1cc(C=C(C(=O)/C=C/c2ccc(O)c(OC)c2)C(=O)/C=C/c2ccc(O)c(OC)c2)ccc1O | 0.305 | 3.28 | – | Active | 0.014 | 72.4 | Active | – | 2.8 | 59.1 | 4.56 | 1.63 | Active | Active | 5.06 | 97.9 | Active
